# In patent US8192962B2, “Processes for detecting toxic substances” (Daikin Industries, Ltd., priority 2001, dated 2012):
# Tested on: Energy system protein genes
# Experiment: DNA chip mRNA expression in yeast, energy system protein genes (Table 4)
# Type: cell-based, Saccharomyces cerevisiae S288C
# Procedure, shortened: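 Untreated cultures served as reference for log-phase S288C yeast given a growth-inhibiting, non-lethal toxicant dose for 2 h at 25° C. in YPD. Gene expression was measured on a whole-genome DNA chip from Cy3/Cy5-labeled cDNA.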
substance,measurement,setting,value
manganese ethylenebis(dithiocarbamate) [(8)],The level of expressed mRNA in the presence of chemical substance/The level of expressed mRNA in the absence of chemical substance,yeast gene YJR048W,0.9
same,The level of expressed mRNA in the presence of chemical substance/The level of expressed mRNA in the absence of chemical substance,"yeast gene YJR121W, cells incubated two hours with the chemical substance",0.7
same,The level of expressed mRNA in the presence of chemical substance/The level of expressed mRNA in the absence of chemical substance,yeast gene YJR155W,10.6
same,The level of expressed mRNA in the presence of chemical substance/The level of expressed mRNA in the absence of chemical substance,"yeast gene YKL016C, cells incubated two hours with the chemical substance",1.6
same,The level of expressed mRNA in the presence of chemical substance/The level of expressed mRNA in the absence of chemical substance,"yeast gene YKL060C, cells incubated two hours with the chemical substance",1.1
same,The level of expressed mRNA in the presence of chemical substance/The level of expressed mRNA in the absence of chemical substance,"yeast gene YKL141W, cells incubated two hours with the chemical substance",0.8
same,The level of expressed mRNA in the presence of chemical substance/The level of expressed mRNA in the absence of chemical substance,"yeast gene YKL148C, cells incubated two hours with the chemical substance",0.8
same,The level of expressed mRNA in the presence of chemical substance/The level of expressed mRNA in the absence of chemical substance,"yeast gene YKR009C, cells incubated two hours with the chemical substance",0.9
same,The level of expressed mRNA in the presence of chemical substance/The level of expressed mRNA in the absence of chemical substance,"yeast gene YKR058W, cells incubated two hours with the chemical substance, 25° C., YPD medium",1.5
same,The level of expressed mRNA in the presence of chemical substance/The level of expressed mRNA in the absence of chemical substance,yeast gene YKR097W,2.5
same,The level of expressed mRNA in the presence of chemical substance/The level of expressed mRNA in the absence of chemical substance,"yeast gene YLL041C, cells incubated two hours with the chemical substance",0.8
same,The level of expressed mRNA in the presence of chemical substance/The level of expressed mRNA in the absence of chemical substance,"yeast gene YLR038C, cells incubated two hours with the chemical substance",1.4
same,The level of expressed mRNA in the presence of chemical substance/The level of expressed mRNA in the absence of chemical substance,"yeast gene YLR044C, cells incubated two hours with the chemical substance",0.7
same,The level of expressed mRNA in the presence of chemical substance/The level of expressed mRNA in the absence of chemical substance,"yeast gene YLR134W, cells incubated two hours with the chemical substance",0.8
same,The level of expressed mRNA in the presence of chemical substance/The level of expressed mRNA in the absence of chemical substance,"yeast gene YLR258W, cells incubated two hours with the chemical substance",0.9
same,The level of expressed mRNA in the presence of chemical substance/The level of expressed mRNA in the absence of chemical substance,"yeast gene YLR284C, cells incubated two hours with the chemical substance",1.2
same,The level of expressed mRNA in the presence of chemical substance/The level of expressed mRNA in the absence of chemical substance,"yeast gene YLR295C, cells incubated two hours with the chemical substance, 25° C., YPD medium",1.2
same,The level of expressed mRNA in the presence of chemical substance/The level of expressed mRNA in the absence of chemical substance,"yeast gene YLR304C, cells incubated two hours with the chemical substance",0.6
same,The level of expressed mRNA in the presence of chemical substance/The level of expressed mRNA in the absence of chemical substance,yeast gene YLR345W,1.4
same,The level of expressed mRNA in the presence of chemical substance/The level of expressed mRNA in the absence of chemical substance,"yeast gene YLR354C, cells incubated two hours with the chemical substance",1.4
same,The level of expressed mRNA in the presence of chemical substance/The level of expressed mRNA in the absence of chemical substance,"yeast gene YLR377C, cells incubated two hours with the chemical substance",0.7
same,The level of expressed mRNA in the presence of chemical substance/The level of expressed mRNA in the absence of chemical substance,"yeast gene YLR395C, cells incubated two hours with the chemical substance",1.0
same,The level of expressed mRNA in the presence of chemical substance/The level of expressed mRNA in the absence of chemical substance,yeast gene YML087C,1.3
same,The level of expressed mRNA in the presence of chemical substance/The level of expressed mRNA in the absence of chemical substance,"yeast gene YML120C, cells incubated two hours with the chemical substance",0.9
same,The level of expressed mRNA in the presence of chemical substance/The level of expressed mRNA in the absence of chemical substance,"yeast gene YML129C, cells incubated two hours with the chemical substance",1.2
same,The level of expressed mRNA in the presence of chemical substance/The level of expressed mRNA in the absence of chemical substance,"yeast gene YMR073C, cells incubated two hours with the chemical substance",1.1
same,The level of expressed mRNA in the presence of chemical substance/The level of expressed mRNA in the absence of chemical substance,yeast gene YMR118C,1.0
same,The level of expressed mRNA in the presence of chemical substance/The level of expressed mRNA in the absence of chemical substance,"yeast gene YMR205C, cells incubated two hours with the chemical substance",0.7
same,The level of expressed mRNA in the presence of chemical substance/The level of expressed mRNA in the absence of chemical substance,"yeast gene YMR261C, cells incubated two hours with the chemical substance",0.7
same,The level of expressed mRNA in the presence of chemical substance/The level of expressed mRNA in the absence of chemical substance,"yeast gene YMR267W, cells incubated two hours with the chemical substance, 25° C., YPD medium",1.5
same,The level of expressed mRNA in the presence of chemical substance/The level of expressed mRNA in the absence of chemical substance,"yeast gene YMR323W, cells incubated two hours with the chemical substance",0.8
same,The level of expressed mRNA in the presence of chemical substance/The level of expressed mRNA in the absence of chemical substance,yeast gene YNL071W,0.9
same,The level of expressed mRNA in the presence of chemical substance/The level of expressed mRNA in the absence of chemical substance,"yeast gene YNL202W, cells incubated two hours with the chemical substance",1.2
same,The level of expressed mRNA in the presence of chemical substance/The level of expressed mRNA in the absence of chemical substance,yeast gene YNL241C,0.9
same,The level of expressed mRNA in the presence of chemical substance/The level of expressed mRNA in the absence of chemical substance,yeast gene YNL331C,13.1
same,The level of expressed mRNA in the presence of chemical substance/The level of expressed mRNA in the absence of chemical substance,"yeast gene YOL086C, cells incubated two hours with the chemical substance",0.8
same,The level of expressed mRNA in the presence of chemical substance/The level of expressed mRNA in the absence of chemical substance,yeast gene YOL165C,17.8
same,The level of expressed mRNA in the presence of chemical substance/The level of expressed mRNA in the absence of chemical substance,"yeast gene YOR142W, cells incubated two hours with the chemical substance",0.8
same,The level of expressed mRNA in the presence of chemical substance/The level of expressed mRNA in the absence of chemical substance,"yeast gene YOR178C, cells incubated two hours with the chemical substance",0.9
same,The level of expressed mRNA in the presence of chemical substance/The level of expressed mRNA in the absence of chemical substance,"yeast gene YOR388C, cells incubated two hours with the chemical substance",0.7
same,The level of expressed mRNA in the presence of chemical substance/The level of expressed mRNA in the absence of chemical substance,"yeast gene YPL031C, cells incubated two hours with the chemical substance",1.0
same,The level of expressed mRNA in the presence of chemical substance/The level of expressed mRNA in the absence of chemical substance,"yeast gene YPL061W, cells incubated two hours with the chemical substance",0.8
same,The level of expressed mRNA in the presence of chemical substance/The level of expressed mRNA in the absence of chemical substance,yeast gene YPL088W,1.9
same,The level of expressed mRNA in the presence of chemical substance/The level of expressed mRNA in the absence of chemical substance,yeast gene YPL171C,20.5
same,The level of expressed mRNA in the presence of chemical substance/The level of expressed mRNA in the absence of chemical substance,yeast gene YPL240C,1.2
same,The level of expressed mRNA in the presence of chemical substance/The level of expressed mRNA in the absence of chemical substance,"yeast gene YPL262W, cells incubated two hours with the chemical substance",1.0
same,The level of expressed mRNA in the presence of chemical substance/The level of expressed mRNA in the absence of chemical substance,"yeast gene YPL275W, cells incubated two hours with the chemical substance",1.0
same,The level of expressed mRNA in the presence of chemical substance/The level of expressed mRNA in the absence of chemical substance,"yeast gene YPL276W, cells incubated two hours with the chemical substance",0.9
same,The level of expressed mRNA in the presence of chemical substance/The level of expressed mRNA in the absence of chemical substance,"yeast gene YPR048W, cells incubated two hours with the chemical substance",1.5
same,The level of expressed mRNA in the presence of chemical substance/The level of expressed mRNA in the absence of chemical substance,"yeast gene YPR184W, cells incubated two hours with the chemical substance",0.7
